Two compounds from patent publication US12521384B2, “Drug delivery composition using crosslinked hyaluronic acid and manufacturing method therefor” (JP cares, priority 2020, dated 2026) can be followed below.

The subject of one series is Sprague-Dawley rats. Nature of the series: Mechanical allodynia degree (threshold), von Frey up-down method, after plantar incision. The series is classed as in vivo. The conditions noted are these: Gb: Ro 0.75% 300 + SC 300 (ropivacaine 2.25 mg); for threshold value (g), group average: once near sciatic nerve. On the procedure: Specific pathogen-free (SPF) Sprague-Dawley rats [Cr1:CD (Sprague Dawley)] (Producer: Orient Bio Inc. (322, Galmachi-ro, Jungwon-gu, Seongnam-si, Gyeonggi-do)) were prepared according to the following condition. • (1) Number of animals at acquisition: male 28 rats • (2) Age at acquisition: about 7-week-old • (3) Body weight range at acquisition: 199.29 to 222.35 g • (4) Age at start of administration: about 8-week-old • (5) Body weight range at start of administration: 265.63 to 294.00 g • (6) Number of animals used: 24 rats • (7) Group separation
After disinfecting the left plantar part of the prepared test animals under general anesthesia, the skin and fascia with a length of 1 cm were incised in the longitudinal direction starting from the part 0.5 cm away from the tip of the back of the foot. The sole muscle (plantar muscle) of the incised part was lifted with forceps to separate 1 cm in length. […] All Ga to Gd doses […] were equally administered near the nerve tissue, and the number of animals comprised in the experimental group were 6.
As a method for measuring the degree of mechanical allodynia after preparing the test groups, a white rat was placed in a wire mesh cage with a net eye size of 2×2 mm and acclimatized for 15 minutes or more, and then the continuous reaction was evaluated by an up-down method using 8 consecutive von Frey filaments (1, 2, 4, 6, 8, 15, 26, 60 g, Stoelting, USA) when the movement of the rat became quiet. […] It was progressed as the weak filament was stimulated when the positive reaction was shown by stimulating from the von Frey filament in the center, and the strong filament was stimulated when there was no positive reaction. By the above method, measurement was performed before, and at 1, 2, 4, 8, 24, 48, 72, 120, 168 hours after administration of the test substance. For interpretation of the result of the pain behavior test, the case in that avoidance reaction was shown or the foot was lifted up on the net while in contact with a plastic plate was determined as positive. Stimulation was given twice at an interval of 3-5 minutes, and using the positive threshold among them, a response change curve with time was obtained.
Pain threshold values were measured before and at 1, 2, 4, 8, 24, 48, 72, 120, 168 after administration of the test substance of each animal of the Ga to Gd group test groups, and the average of the threshold values of each test group was calculated. In Table 4 below, the threshold value (g) measured over time of drug administration was shown.

Series [1] is described as follows: Drug release behavior of bupivacaine (dialysis bag in PBS, RP-HPLC). The series is classed as physicochemical. The conditions noted are these: 8 hours; PBS 37° C., 100 rpm. On the procedure: By mixing the crosslinked hyaluronic acid gels, JPD001, JPD004 and (mixture of JPD001 and JPD004 at a weight ratio of 1:1) comprising the crosslinked hyaluronic acid solid prepared in Example 1 at a content of 2% by weight, which are Samples 1-1, 1-4 and 1-5 of Example 1 of 6 g, respectively, and 0.75% by weight bupivacaine solution 3 g, a drug preparation was prepared. A preparation in which non-crosslinked hyaluronic acid having a molecular weight of 1,500 kDa (repeated unit molecular weight 401.3) 2% by weight and a preparation comprising only the bupivacaine drug were prepared, respectively, as a control group.
The prepared drug preparation was put in a dialysis bag (MWCO: 12 K-14 K Da), separately. Then, the dialysis bag was immersed into a tube with 15 ml phosphate buffer solution. The 50 mL conical tube in which the immersed dialysis bag was put was placed in a shaking tank maintained at 37° C. and shaken at 100 rpm horizontally. Then, at scheduled time intervals, a release medium (PBS) aliquot of 1.5 mL was collected and the entire release medium was replaced with new PBS to maintain a sink condition. Quantification of the released bupivacaine was determined by reverse-phase high-performance liquid chromatography (RP-HPLC) using a ZORBAX Eclipse XDB C18 column (4.6 mm×250 mm, 5 μm) and acetonitrile/pH 8.0 buffer (60:40, v/v) for 10 minutes or more.

The structures appear in SMILES notation.

Turning to `CCCN1CCCC[C@H]1C(=O)Nc1c(C)cccc1C` [Ropivacaine, ropivacaine], the “time at which the pain was completely recovered” value in the series on Sprague-Dawley rats was found to be 120 h. Moreover, the “threshold value (g), group average” value turned out to be 60 g in the series on Sprague-Dawley rats (0 hr (before administration)); 60 g with Sprague-Dawley rats (1 hr); 60 g in the series on Sprague-Dawley rats (2 hr); 37.3 g in the series with Sprague-Dawley rats (4 hr); 31.7 g in the series on Sprague-Dawley rats (8 hr); 28.0 g in the series on Sprague-Dawley rats (24 hr). Also, the “threshold value (g), group average” value stood at 17.5 g in the series with Sprague-Dawley rats (48 hr), 29.8 g in the series with Sprague-Dawley rats (72 hr), 60 g in the series on Sprague-Dawley rats (120 hr) and 60 g in the series with Sprague-Dawley rats (168 hr).
For `CCCCN1CCCCC1C(=O)Nc1c(C)cccc1C` (stereo not drawn) [bupivacaine], in series [1], the “cumulative release amount of bupivacaine” value is listed as 99%.
